# Patent US9976141B2, “Compositions and methods for inhibiting gene expression of Hif2alpha” (Arrowhead Madison Inc., priority 2015, dated 2018)
# Strand notation (5' to 3'): a small letter for the sugar, then the base; units joined by * are phosphorothioate-linked, units joined directly phosphodiester-linked; [ ] holds rarer units or linkages, { } end groups; capitals alone tell only the bases. {Alk-C6-SMPT-C6} = Alk-C6-SMPT-C6 linker modification, as named by the publication; [invdT] = inverted (3'-3') thymidine; e = 2'-O-(2-methoxyethyl) (MOE); m = 2'-O-methyl; f = 2'-fluoro
# Test system: human (tumor) Hif2α (EPAS1) mRNA
# Assay: Hif2α knockdown in orthotopic RCC tumor bearing mice, single injection of RNAi trigger-delivery polymer conjugate, RT-qPCR (Table 7)
# Assay type: in vivo
# Details: RNAi trigger 50 μg, polymer 064 125 μg; single tail vein injection; relative to isotonic glucose
# Method in brief: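 Female athymic nude mice carried orthotopic A498-SEAP ccRCC kidney tumours, used 5–6 weeks after implantation. They received one tail-vein injection of RGD-targeted Hif2α RNAi trigger–polymer conjugate or isotonic glucose. Tumour Hif2α mRNA was measured by TaqMan RT-qPCR normalised to CycA (ΔΔCT) and expressed relative to glucose-treated mice.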
row,Substance,Relative Expression day 4 (Hif2α mRNA in kidney tumor)
1,"AD03259 (antisense AUUCAUGAAAUCGUUACGUTG; sense ACGUAACGAUUUCAUGAATT; Hif2alpha RNAi agent antisense strand; modified_base 2,8,10,14 /mod_base = “2′-deoxy-2′-fluoro corresponding nucleoside”; modified_base 1,3,4,5,6,7,9,11,12,13,15,16,17,18,19 /mod_base = “2′-O-methyl corresponding nucleoside”; modified_base 20,21 /mod_base = “2′-MOE nucleotide”; modified_base 2,3,20,21 /mod_base = “5′-phosphorothioate corresponding nucleotide”; Hif2alpha RNAi agent sense strand; modified_base 7,8,9 /mod_base = “2′-deoxy-2′-fluoro corresponding nucleoside”; modified_base 1,2,3,4,5,6,10,11,12,13,14,15,16,17 /mod_base = “2′-O-methyl corresponding nucleoside”; modified_base 20 /m)",0.179
2,"AD03260 (antisense AUUCAUGAAAUCGUUACGUUG; sense ACGUAACGAUUUCAUGAATT; Hif2alpha RNAi agent antisense strand; modified_base 2,8,10,14 /mod_base = “2′-deoxy-2′-fluoro corresponding nucleoside”; modified_base 1,3,4,5,6,7,9,11,12,13,15,16,17,18,19,20,21 /mod_base = “2′-O-methyl corresponding nucleoside”; modified_base 2,3,20,21 /mod_base = “5′-phosphorothioate corresponding nucleotide”; Hif2alpha RNAi agent sense strand; modified_base 7,8,9 /mod_base = “2′-deoxy-2′-fluoro corresponding nucleoside”; modified_base 1,2,3,4,5,6,10,11,12,13,14,15,16,17 /mod_base = “2′-O-methyl corresponding nucleoside”; modified_base 20 /mod_base = “3′-3′-linked nucleotide”; modified_b)",0.175
3,"AD03261 (antisense mA*fU*mUmCmAmUmGfAmAfAmUmCmGfUmUmAmCmGmU*mU*mG; sense ACGUAACGAUUUCAUGAAT; siRNA; sense: sugars from the 5' end e2 m4 f3 m8 e2, [invdT] at 3' end, linkages s1 o18 (s phosphorothioate, o phosphodiester), 5' {Alk-C6-SMPT-C6}, methylation of C not given here; further chemistry not fully specified)",0.177
4,"AD03262 (antisense AUUCAUGAAAUCGUUACGUUG; sense ACGUAACGAUUUCAUGAAUT; Hif2alpha RNAi agent antisense strand; modified_base 2,8,10,14 /mod_base = “2′-deoxy-2′-fluoro corresponding nucleoside”; modified_base 1,3,4,5,6,7,9,11,12,13,15,16,17,18,19,20,21 /mod_base = “2′-O-methyl corresponding nucleoside”; modified_base 2,3,20,21 /mod_base = “5′-phosphorothioate corresponding nucleotide”; Hif2alpha RNAi agent sense strand; modified_base 7,8,9 /mod_base = “2′-deoxy-2′-fluoro corresponding nucleoside”; modified_base 1,2,3,4,5,6,10,11,12,13,14,15,16,17,18,19 /mod_base = “2′-O-methyl corresponding nucleoside”; modified_base 20 /mod_base = “3′-3′-linked nucleotide”; modi)",0.197
5,"AD03263 (antisense AUUCAUGAAAUCGUUACGUUG; sense ACGUAACGAUUUCAUGAAUN; Hif2alpha RNAi agent antisense strand; modified_base 2,8,10,14 /mod_base = “2′-deoxy-2′-fluoro corresponding nucleoside”; modified_base 1,3,4,5,6,7,9,11,12,13,15,16,17,18,19,20,21 /mod_base = “2′-O-methyl corresponding nucleoside”; modified_base 2,3,20,21 /mod_base = “5′-phosphorothioate corresponding nucleotide”; Hif2alpha RNAi agent sense strand; modified_base 7,8,9 /mod_base = “2′-deoxy-2′-fluoro corresponding nucleoside”; modified_base 1,2,3,4,5,6,10,11,12,13,14,15,16,17,18,19 /mod_base = “2′-O-methyl corresponding nucleoside”; modified_base 20 /mod_base = “3′-3′-linked abasic site”; mod)",0.134
6,"AD03264 (antisense UUUCAUGAAAUCGUUACGUUG; sense ACGUAACGAUUUCAUGAAAT; Hif2alpha RNAi agent antisense strand; modified_base 2,3,8,10,14 /mod_base = “2′-deoxy-2′-fluoro corresponding nucleoside”; modified_base 1,4,5,6,7,9,11,12,13,15,16,17,18,19,20,21 /mod_base = “2′-O-methyl corresponding nucleoside”; modified_base 2,3,20,21 /mod_base = “5′-phosphorothioate corresponding nucleotide”; Hif2alpha RNAi agent sense strand; modified_base 7,8,9 /mod_base = “2′-deoxy-2′-fluoro corresponding nucleoside”; modified_base 1,2,3,4,5,6,10,11,12,13,14,15,16,17,18,19 /mod_base = “2′-O-methyl corresponding nucleoside”; modified_base 20 /mod_base = “3′-3′-linked nucleotide”; modi)",0.264
7,"AD03265 (antisense UUUCAUGAAAUCGUUACGUUG; sense UAUACGUAACGAUUUCAUGAAAT; Hif2alpha RNAi agent antisense strand; modified_base 2,4,6,8,14 /mod_base = “2′-deoxy-2′-fluoro corresponding nucleoside”; modified_base 1,3,5,7,9,10,11,12,13,15,16,17,18,19,20,21 /mod_base = “2′-O-methyl corresponding nucleoside”; modified_base 2,3,20,21 /mod_base = “5′-phosphorothioate corresponding nucleotide”; Hif2alpha RNAi agent sense strand; modified_base 2 modified base = “2′-hydroxy corresponding nucleoside”; modified_base 10,11,12 /mod_base = “2′-deoxy-2′-fluoro corresponding nucleoside”; modified_base 1,3,4,5,6,7,8,9,13,14,15,16,17,18,19,20,21,22 /mod_base = “2′-O-methyl correspon)",0.294
8,"AD03266 (antisense UUUCAUGAAAUCGUUACGUUG; sense ACGUAACGAUUUCAUGAAAT; Hif2alpha RNAi agent antisense strand; modified_base 2,4,6,8,14 /mod_base = “2′-deoxy-2′-fluoro corresponding nucleoside”; modified_base 1,3,5,7,9,10,11,12,13,15,16,17,18,19,20,21 /mod_base = “2′-O-methyl corresponding nucleoside”; modified_base 2,3,20,21 /mod_base = “5′-phosphorothioate corresponding nucleotide”; Hif2alpha RNAi agent sense strand; modified_base 7,8,9 /mod_base = “2′-deoxy-2′-fluoro corresponding nucleoside”; modified_base 1,2,3,4,5,6,10,11,12,13,14,15,16,17,18,19 /mod_base = “2′-O-methyl corresponding nucleoside”; modified_base 20 /mod_base = “3′-3′-linked nucleotide”; modi)",0.408
